Data published in patent US20200368272A1, “COMPOSITION FOR AMELIORATING POST-CEREBRAL STROKE SEQUELA” (MiZ Company Limited, priority 2019, published 2020).

Tests used:
[1] = system: sequelae of cerebellar hemorrhage (loss of motor control, language disorder) in a person
Experimental: A person was hospitalized after developing cerebellar hemorrhage about eight years ago, then was transferred to a rehabilitation hospital after discharge to receive rehabilitation, which they are continuing to this day.
The inhalation of molecular hydrogen was performed daily for the first 2 months, 1 to 1.5 hours in the morning and 1 to 1.5 hours in the evening, then daily for 1 month, 2 to 3 hours in the morning and 2 to 3 hours in the evening, and finally daily for 1 month, 1 hour in the morning and 1 hour in the evening.

[2] = normal temperature and pressure; also printed as 1.6 mg/L; cited from earlier work

[HH] [molecular hydrogen]
articulation (language disorder) ([1]; approximately one month after inhaling): improved
time needed to walk a distance that previously took 20 minutes ([1]; approximately one month after inhaling, about 6 to 7.5 vol % H2): about 10 minutes
speech ([1]; approximately three months after inhalation): their speech became even more audible
motor and daily-life abilities ([1]; approximately two months after inhalation): able to talk while walking, their stride during rehabilitation lengthened
concentration at which hydrogen dissolves in water [2]: about 1.6 ppm
